Test results as given in US9849174B2, “Methods and compositions related to immunogenic fibrils” (The Board of Regents of the University of Texas System, priority 2009, dated 2017).
“Also recorded” adds a separate entry of the source. Square brackets hold non-standard residues; d marks the D form.

Experiments:
OT-II cells = experiment: In vitro activation assay of OT-II lymphocytes on nanofiber-coated wells, cytokines by flow cytometry; type: cell-based, mice; conditions: 6 h stimulation; for Cytokine (IFN-γ, IL-2) production by OT-II cells: nanofibers without OVA
Source text: OVA-KFE8D Nanofibers Induce Robust CD4 T Helper Cell Responses. OVA (ISQAVHAAHAEINEAGR) (SEQ ID NO: 26), is a well-characterized CD4+ T helper epitope, a portion of which is also recognized by B cells (ISQAVHAAHA) (SEQ ID NO: 58) (Robertson, et al., 2000). Therefore, immunization with OVA leads to both CD4+ T cell activation and antibody production and studies have shown that antibody responses against OVA are CD4+ T celldependent (Rudra, et al., 2012; Robertson, et al., 2000). To assess whether the enantiomeric nature of nanofibers that contributed to enhanced antibody responses also leads to differential CD4+ T helper cell functionality, we utilized transgenic mice (OT-II mice) that have CD4+ T cells (OT-II cells) whose receptors recognize OVA in the context of MHC-class II molecules.30 CD4+ T cell responses were assessed using an in vitro activation assay. Whole lymphocyte extracts (containing antigen-presenting cell, B cell, and CD4+ T cell populations) from OT-II mice were cultured in wells coated with OVA-bearing enantiomers, and 6 h later the production of cytokines IFN-γ and IL-2 were measured using flow cytometry. Lymphocytes stimulated with PBS or free OVA peptide were used as negative and positive controls, respectively.

C57BL/6 mice = experiment: Subcutaneous immunization with OVA-KFE8 enantiomers, antibody responses by ELISA (Example 4); type: in vivo

| Compound | Cytokine (IFN-γ, IL-2) production by OT-II cells (OT-II cells) | Antibody isotype levels compared to OVA-KFE8(L) (C57BL/6 mice; IgG2a, IgG2b, IgG3, IgM, IgA) | Anti-OVA antibodies on plates coated with free OVA peptide compared to OVA-KFE8(L) (C57BL/6 mice; mouse, in vivo) | IgG2a, IgM, and IgA production compared to OVA in ISA-720 (C57BL/6 mice; mouse, in vivo) | OVA-specific antibodies compared to OVA-KFE8(L), SGSG-KFE8 control wells subtracted (C57BL/6 mice; mouse, in vivo) | Dominant antibody isotype (C57BL/6 mice; plates coated with free OVA peptide) | Total IgG antibody response (C57BL/6 mice; s.c., boost day 28) | Antibody levels compared to OVA-KFE8(L) nanofibers or OVA in ISA-720 (C57BL/6 mice; series of serum dilutions) | Antibody levels pre-boost compared to OVA-KFE8(L) (C57BL/6 mice; week 2 up to the boost at week 4) | Difference in IFN-γ and IL-2 production / CD4+ T cell activation between the enantiomers (OT-II cells) | IFN-γ production by OT-II cells compared to wells coated with PBS or bare nanofibers (OT-II cells) | IL-2 production by OT-II cells compared to wells coated with PBS or bare nanofibers (OT-II cells) |
| --- | --- | --- | --- | --- | --- | --- | --- | --- | --- | --- | --- | --- |
| CC(=O)N[C@H](Cc1ccccc1)C(=O)N[C@H](CCCCN)C(=O)N[C@H](Cc1ccccc1)C(=O)N[C@H](CCC(=O)O)C(=O)N[C@H](Cc1ccccc1)C(=O)N[C@H](CCCCN)C(=O)N[C@H](Cc1ccccc1)C(=O)N[C@H](CCC(=O)O)C(N)=O [KFE8(D), Ac-^DF^DK^DF^DE^DF^DK^DF^DE-Am] | no cytokine production | – | – | – | – | – | – | – | – | – | – | – |
| H2N-ISQAVHAAHAEINEAGRSGSG^DF^DK^DF^DE^DF^DK^DF^DE-Am (H-ISQAVHAAHAEINEAGRSGSG[dF][dK][dF][dE][dF][dK][dF][dE]-NH2; SMILES CC[C@H](C)[C@H](N)C(=O)N[C@@H](CO)C(=O)N[C@@H](CCC(N)=O)C(=O)N[C@@H](C)C(=O)N[C@H](C(=O)N[C@@H](Cc1c[nH]cn1)C(=O)N[C@@H](C)C(=O)N[C@@H](C)C(=O)N[C@@H](Cc1c[nH]cn1)C(=O)N[C@@H](C)C(=O)N[C@@H](CCC(=O)O)C(=O)N[C@H](C(=O)N[C@@H](CC(N)=O)C(=O)N[C@@H](CCC(=O)O)C(=O)N[C@@H](C)C(=O)NCC(=O)N[C@@H](CCCNC(=N)N)C(=O)N[C@@H](CO)C(=O)NCC(=O)N[C@@H](CO)C(=O)NCC(=O)N[C@H](Cc1ccccc1)C(=O)N[C@H](CCCCN)C(=O)N[C@H](Cc1ccccc1)C(=O)N[C@H](CCC(=O)O)C(=O)N[C@H](Cc1ccccc1)C(=O)N[C@H](CCCCN)C(=O)N[C@H](Cc1ccccc1)C(=O)N[C@H](CCC(=O)O)C(N)=O)[C@@H](C)CC)C(C)C) [OVA-KFE8(D)] | – | Significantly higher levels of all antibody isotypes | higher levels of anti-OVA antibodies; also recorded: Significantly higher levels of antibodies | significantly higher | significantly higher levels of OVA-specific antibodies | IgG1 | robust antibody responses | Significantly higher levels of total IgG | significantly higher levels of antibodies | no significant differences | significantly higher levels | significantly higher levels |
| CC(=O)N[C@@H](Cc1ccccc1)C(=O)N[C@@H](CCCCN)C(=O)N[C@@H](Cc1ccccc1)C(=O)N[C@@H](CCC(=O)O)C(=O)N[C@@H](Cc1ccccc1)C(=O)N[C@@H](CCCCN)C(=O)N[C@@H](Cc1ccccc1)C(=O)N[C@@H](CCC(=O)O)C(N)=O [KFE8(L), Ac-FKFEFKFE-Am] | no cytokine production | – | – | – | – | – | – | – | – | – | – | – |
